Measurements: US20230064983A1 (priority 2020, published 2023)
Where “and” joins values, the source holds several entries; their conditions need not be identical. Equal entries are not always repeated. Where two headings read alike, the source gives them in different places.

Key:
[1] = molecular target: T1, EGFR with insertion SVD between D770 and N771 (mutEGFR D770_N771insSVD) (Homo sapiens, UniProt P00533, DUP768-770); assay: Exon20-Mutant-EGFR(D770_N771insSVD) kinase assay (TR-FRET); type: biochemical; settings: 2 mM ATP, Table 2
T1 construct: amino acids R669 to A1210; made in house; host or cells: Sf9 insect cells (baculovirus)
T1 sequence (P00533 other isoform, or with tags, fused parts or gaps DUP768-770): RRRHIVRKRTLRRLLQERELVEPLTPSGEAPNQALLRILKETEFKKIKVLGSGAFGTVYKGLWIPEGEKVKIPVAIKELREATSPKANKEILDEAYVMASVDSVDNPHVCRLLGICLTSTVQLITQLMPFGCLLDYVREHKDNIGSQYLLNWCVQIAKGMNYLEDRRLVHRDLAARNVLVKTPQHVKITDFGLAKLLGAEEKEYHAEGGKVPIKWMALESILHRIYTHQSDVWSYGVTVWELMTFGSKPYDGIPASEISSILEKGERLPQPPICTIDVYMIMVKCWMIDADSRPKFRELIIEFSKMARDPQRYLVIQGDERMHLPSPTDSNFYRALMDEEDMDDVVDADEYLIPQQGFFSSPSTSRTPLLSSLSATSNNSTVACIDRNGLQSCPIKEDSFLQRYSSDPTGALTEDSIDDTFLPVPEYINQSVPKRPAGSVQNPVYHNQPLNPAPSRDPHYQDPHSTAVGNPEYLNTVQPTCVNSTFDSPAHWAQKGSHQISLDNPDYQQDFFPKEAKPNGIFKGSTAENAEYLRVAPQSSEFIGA

Bub1 = molecular target: T2, Bub1 (Homo sapiens, UniProt O43683); assay: Bub1 high ATP kinase assay (TR-FRET); type: biochemical; settings: 2 mM ATP, Table 3
T2 construct: catalytic domain of human Bub1 (amino acids 704-1085); His6 (N); made in house; host or cells: insect cells (Hi5)
T2 sequence (O43683 704-1085): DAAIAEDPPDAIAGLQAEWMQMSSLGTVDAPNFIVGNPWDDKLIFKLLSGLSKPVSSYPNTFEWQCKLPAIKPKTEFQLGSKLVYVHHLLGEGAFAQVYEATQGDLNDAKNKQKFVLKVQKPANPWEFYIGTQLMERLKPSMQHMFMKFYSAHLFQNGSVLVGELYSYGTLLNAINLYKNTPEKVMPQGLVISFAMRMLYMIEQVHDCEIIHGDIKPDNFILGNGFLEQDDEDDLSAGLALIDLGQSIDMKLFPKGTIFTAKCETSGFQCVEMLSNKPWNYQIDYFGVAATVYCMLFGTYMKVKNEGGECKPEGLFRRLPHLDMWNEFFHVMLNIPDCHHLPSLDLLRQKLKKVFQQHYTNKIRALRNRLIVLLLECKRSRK
Method in brief: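 Read-out was the 665/620 nm TR-FRET ratio after 1 h at 22 °C with EDTA stop mix (streptavidin-XL665, anti-phosphoserine antibody, Eu anti-mouse IgG). Beforehand, a biotinylated peptide was phosphorylated for 60 min at 22 °C under high ATP by His6-tagged human Bub1 residues 704-1085 expressed in Hi5 cells, about 200 ng/ml.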

[2] = molecular target: Ba/F3-EGFR-D770_N771insSVD cells (Homo sapiens, UniProt P00533, DUP768-770, cells depend on it); assay: Ba/F3 cell survival assay, EGFR D770_N771insSVD; type: cell-based; settings: Cell Titer-Glo, 48 h, without IL-3; Table 4; read-out: BA/F3 (insSVD) IC50
Sequence of Ba/F3-EGFR-D770_N771insSVD cells (P00533 with tags, fused parts or gaps DUP768-770): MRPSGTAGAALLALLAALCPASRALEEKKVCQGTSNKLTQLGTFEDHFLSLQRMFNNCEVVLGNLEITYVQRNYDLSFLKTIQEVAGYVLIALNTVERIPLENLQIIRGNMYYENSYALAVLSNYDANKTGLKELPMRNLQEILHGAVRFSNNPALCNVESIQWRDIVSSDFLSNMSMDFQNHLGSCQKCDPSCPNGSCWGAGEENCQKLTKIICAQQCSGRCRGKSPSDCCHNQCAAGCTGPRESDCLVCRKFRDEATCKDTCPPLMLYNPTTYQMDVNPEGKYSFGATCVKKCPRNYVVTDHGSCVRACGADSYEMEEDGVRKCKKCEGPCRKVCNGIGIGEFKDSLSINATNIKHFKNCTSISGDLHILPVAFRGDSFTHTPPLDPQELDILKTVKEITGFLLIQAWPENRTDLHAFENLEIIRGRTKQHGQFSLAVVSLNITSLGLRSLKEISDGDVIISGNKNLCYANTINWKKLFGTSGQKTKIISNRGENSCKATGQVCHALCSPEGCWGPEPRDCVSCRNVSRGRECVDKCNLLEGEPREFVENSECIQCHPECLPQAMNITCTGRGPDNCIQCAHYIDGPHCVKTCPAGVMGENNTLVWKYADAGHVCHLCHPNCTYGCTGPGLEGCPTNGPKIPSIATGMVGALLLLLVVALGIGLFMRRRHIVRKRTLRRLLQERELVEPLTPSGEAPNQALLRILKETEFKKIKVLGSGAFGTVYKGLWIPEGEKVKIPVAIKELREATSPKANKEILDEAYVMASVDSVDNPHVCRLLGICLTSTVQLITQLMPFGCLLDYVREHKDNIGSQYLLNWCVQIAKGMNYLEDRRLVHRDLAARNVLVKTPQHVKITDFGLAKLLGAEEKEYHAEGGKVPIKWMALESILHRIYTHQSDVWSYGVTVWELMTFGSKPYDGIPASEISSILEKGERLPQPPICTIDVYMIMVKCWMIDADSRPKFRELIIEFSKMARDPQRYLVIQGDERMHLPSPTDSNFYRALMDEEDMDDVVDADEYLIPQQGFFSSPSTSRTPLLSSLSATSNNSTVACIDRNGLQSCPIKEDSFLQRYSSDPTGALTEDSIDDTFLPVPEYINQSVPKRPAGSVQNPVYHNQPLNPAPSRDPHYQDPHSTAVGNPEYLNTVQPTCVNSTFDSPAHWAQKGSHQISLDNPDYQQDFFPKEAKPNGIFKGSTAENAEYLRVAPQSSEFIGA

Ba/F3-EGFR-WT cells = Ba/F3-EGFR-WT cells (Homo sapiens, UniProt P00533); assay: Ba/F3 cell survival assay, wild type EGFR; type: cell-based; settings: Cell Titer-Glo, 48 h, with 10 ng/mL EGF; Table 4; read-out: BA/F3 (wild type) IC50
Sequence of Ba/F3-EGFR-WT cells (P00533 whole entry, looked up, change not shown): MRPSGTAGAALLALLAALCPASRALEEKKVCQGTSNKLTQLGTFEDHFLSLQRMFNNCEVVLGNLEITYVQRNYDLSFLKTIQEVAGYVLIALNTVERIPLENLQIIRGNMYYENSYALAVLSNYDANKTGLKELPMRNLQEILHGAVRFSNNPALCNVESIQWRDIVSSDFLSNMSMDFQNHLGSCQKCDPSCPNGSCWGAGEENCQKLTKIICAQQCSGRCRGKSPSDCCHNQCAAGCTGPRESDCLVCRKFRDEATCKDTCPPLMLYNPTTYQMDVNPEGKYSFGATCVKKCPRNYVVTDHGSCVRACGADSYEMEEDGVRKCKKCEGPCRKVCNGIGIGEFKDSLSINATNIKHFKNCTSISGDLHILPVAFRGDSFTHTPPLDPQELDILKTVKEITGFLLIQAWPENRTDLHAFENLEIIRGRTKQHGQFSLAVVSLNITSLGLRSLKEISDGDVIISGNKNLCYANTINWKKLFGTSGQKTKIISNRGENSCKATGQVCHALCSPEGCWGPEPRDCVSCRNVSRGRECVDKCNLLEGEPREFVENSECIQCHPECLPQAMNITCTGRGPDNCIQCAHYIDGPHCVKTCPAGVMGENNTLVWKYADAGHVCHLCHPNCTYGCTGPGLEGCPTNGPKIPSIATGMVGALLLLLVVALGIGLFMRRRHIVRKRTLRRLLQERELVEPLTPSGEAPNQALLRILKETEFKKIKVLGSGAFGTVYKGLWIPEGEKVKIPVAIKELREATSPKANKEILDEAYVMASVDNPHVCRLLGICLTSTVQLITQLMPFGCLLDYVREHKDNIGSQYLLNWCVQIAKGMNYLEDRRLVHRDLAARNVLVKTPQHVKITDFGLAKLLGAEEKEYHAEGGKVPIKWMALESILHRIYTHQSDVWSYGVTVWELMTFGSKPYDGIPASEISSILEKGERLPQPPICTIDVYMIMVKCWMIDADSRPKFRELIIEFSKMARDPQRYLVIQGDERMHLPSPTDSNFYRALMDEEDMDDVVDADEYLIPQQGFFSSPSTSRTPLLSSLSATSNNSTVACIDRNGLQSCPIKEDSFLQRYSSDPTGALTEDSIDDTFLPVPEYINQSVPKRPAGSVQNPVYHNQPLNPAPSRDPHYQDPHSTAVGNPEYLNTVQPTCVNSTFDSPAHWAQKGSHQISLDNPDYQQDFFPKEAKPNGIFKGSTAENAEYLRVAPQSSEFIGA

[3] = Bub1 high ATP (2 mM) IC50, TR-FRET

| mutEGFR (D770_N771insSVD) kinase assay IC50 [1] | IC50 (Bub1; [3]) | IC50 (Bub1; read-out: Bub1 high ATP (2 mM) IC50, TR-FRET) [nM] | Compound | GI50 [2] [nM] | GI50 (Ba/F3-EGFR-WT cells) [nM] |
| --- | --- | --- | --- | --- | --- |
| 0.24 nM | 2520 nM | – | COC(C)(C)COc1cnccc1-c1[nH]c2c(c1Nc1cccc(F)c1CC(F)F)C(=O)N[C@H](C)C2 [Example 65, (6R)-3-[2-(2,2-difluoroethyl)-3-fluoroanilino]-2-[3-(2-methoxy-2-methylpropoxy)pyridin-4-yl]-6-methyl-1,5,6,7-tetrahydro-4H-pyrrolo[3,2-c]pyridin-4-one] | 72 | 795 |
| 0.139 nM | 9720 nM | – | COc1c(Cl)cccc1Nc1c(-c2ccncc2OCC2CCCCO2)[nH]c2c1C(=O)N[C@H](C)C2 (single isomer, unassigned) [Example 28] | 8.33 | 189 |
| 0.188 nM | 628 nM | – | COc1c(Cl)cccc1Nc1c(-c2ccncc2OC[C@@H]2CCCO2)[nH]c2c1C(=O)NC(C(F)(F)F)C2 (mixture of isomers) [Example 38, 3-(3-chloro-2-methoxy-anilino)-2-(3-{[(2S)-tetrahydrofuran-2-yl]methoxy}-4-pyridyl)-6-(trifluoromethyl)-1,5,6,7-tetrahydropyrrolo[3,2-c]pyridin-4-one] | 138 | 996 |
| 0.104 nM | 11100 nM | – | COc1c(Cl)cccc1Nc1c(-c2ccncc2OCC2OCCCC2(F)F)[nH]c2c1C(=O)N[C@H](C)C2 (single isomer, unassigned) [Example 75] | 18.2 | 264 |
| 0.135 nM | 1320 nM | – | COc1c(Cl)cccc1Nc1c(-c2ccncc2OCC(C)(C)OC)[nH]c2c1C(=O)N[C@H](C)C2 [Example 1, (6R)-3-(3-chloro-2-methoxyanilino)-2-[3-(2-methoxy-2-methylpropoxy)pyridin-4-yl]-6-methyl-1,5,6,7-tetrahydro-4H-pyrrolo[3,2-c]pyridin-4-one] | 17.8 | 417 |
| 0.184 nM | 1650 nM | – | Cc1c(Cl)cccc1Nc1c(-c2ccncc2OC[C@@H]2COCCO2)[nH]c2c1C(=O)N[C@H](C)C2 [Example 103, (6R)-3-(3-chloro-2-methylanilino)-2-(3-{[(2S)-1,4-dioxan-2-yl]methoxy}pyridin-4-yl)-6-methyl-1,5,6,7-tetrahydro-4H-pyrrolo[3,2-c]pyridin-4-one] | 32.2 | 529 |
| 0.193 nM | 7830 nM | – | COc1c(Cl)cccc1Nc1c(-c2ccncc2OC[C@@H]2CN(C)CCO2)[nH]c2c1C(=O)NC1(CC1)C2 [Example 112, 3′-(3-chloro-2-methoxyanilino)-2′-(3-{[(2S)-4-methylmorpholin-2-yl]methoxy}pyridin-4-yl)-1′,7′-dihydrospiro[cyclopropane-1,6′-pyrrolo[3,2-c]pyridin]-4′(5′H)-one] | 20.4 | 553 |
| 0.205 nM | 374 nM | – | COc1c(Cl)cccc1Nc1c(-c2ccncc2OC[C@@H]2COCCO2)[nH]c2c1C(=O)NC1(CC1)C2 [Example 111, 3′-(3-chloro-2-methoxyanilino)-2′-(3-{[(2S)-1,4-dioxan-2-yl]methoxy}pyridin-4-yl)-1′,7′-dihydrospiro[cyclopropane-1,6′-pyrrolo[3,2-c]pyridin]-4′(5′H)-one] | 19.4 | 574 |
| 0.24 nM | > 5700 nM | – | COc1c(Cl)cccc1Nc1c(-c2ccncc2OCC2OCCCC2(F)F)[nH]c2c1C(=O)N[C@H](C)C2 (single isomer, unassigned) [Example 76] | 177 | 2440 |
| 0.0981 nM and <0.0725 nM | 399 nM | – | COc1c(Cl)cccc1Nc1c(-c2ccncc2OC[C@@H]2CCCO2)[nH]c2c1C(=O)NC(C(F)(F)F)C2 (single isomer, unassigned) [Example 40] | 64.3 | 480 |
| 0.504 nM | – | > 20000 | COc1c(Cl)cccc1Nc1c(-c2ccncc2OCC2COC(C)(C)CO2)[nH]c2c1C(=O)NCC2C (single isomer, unassigned) [Example 95, 3-(3-chloro-2-methoxy-anilino)-2-[3-[(5,5-dimethyl-1,4-dioxan-2-yl)methoxy]-4-pyridyl]-7-methyl-1,5,6,7-tetrahydropyrrolo[3,2-c]pyridin-4-one] | 14.9 | 415 |
| 0.179 nM | 4060 nM | – | COc1c(Cl)cccc1Nc1c(-c2ccncc2OCC2OCCC2(F)F)[nH]c2c1C(=O)N[C@H](C)C2 (single isomer, unassigned) [Example 73] | 55.3 | 643 |

The remaining lines, values behind:

| Compound | mutEGFR (D770_N771insSVD) kinase assay IC50 [1] | IC50 (Bub1; [3]) | IC50 (Bub1; read-out: Bub1 high ATP (2 mM) IC50, TR-FRET) [nM] | GI50 [2] [nM] | GI50 (Ba/F3-EGFR-WT cells) [nM] |
| --- | --- | --- | --- | --- | --- |
| COc1c(Cl)cccc1Nc1c(-c2ccncc2OC[C@@H]2CCCO2)[nH]c2c1C(=O)NCC2CCO (mixture of isomers) [Example 16, 3-(3-chloro-2-methoxyanilino)-7-(2-hydroxyethyl)-2-(3-{[(2S)-oxolan-2-yl]methoxy}pyridin-4-yl)-1,5,6,7-tetrahydro-4H-pyrrolo[3,2-c]pyridin-4-one] | 0.413 nM | > 20000 nM | – | 63.8 | 644 |
| COc1c(Cl)cccc1Nc1c(-c2ccncc2OCC2COC(C)(C)CO2)[nH]c2c1C(=O)NC1(CCC1)C2 (single isomer, unassigned) [Example 130, 3′-(3-chloro-2-methoxyanilino)-2′-{3-[(5,5-dimethyl-1,4-dioxan-2-yl)methoxy]pyridin-4-yl}-1′,7′-dihydrospiro[cyclobutane-1,6′-pyrrolo[3,2-c]pyridin]-4′(5′H)-one] | 0.256 nM | 768 nM | – | 8.01 | 418 |
| COc1c(Cl)cccc1Nc1c(-c2ccncc2OCC2(C)CCO2)[nH]c2c1C(=O)NCC2CCO (stereo not drawn) [Example 19, 3-(3-chloro-2-methoxyanilino)-7-(2-hydroxyethyl)-2-{3-[(2-methyloxetan-2-yl)methoxy]pyridin-4-yl}-1,5,6,7-tetrahydro-4H-pyrrolo[3,2-c]pyridin-4-one] | 0.279 nM | 13500 nM | – | 86.5 | 684 |
| COc1c(Cl)cccc1Nc1c(-c2ccncc2OC[C@@H]2CCCO2)[nH]c2c1C(=O)NC1CCCC21 (stereo in doubt) [Example 55, (5aR*,8aS*)-3-(3-chloro-2-methoxyanilino)-2-(3-{[(2S)-oxolan-2-yl]methoxy}-4-pyridyl)-5,5a,6,7,8,8a-hexahydrocyclopenta[b]pyrrolo[2,3-d]pyridin-4(1H)-one] | 0.239 nM | 758 nM | – | 75.1 | 978 |
| COc1c(Cl)cccc1Nc1c(-c2ccncc2OC[C@@H]2CCCO2)[nH]c2c1C(=O)NCC2CC=C(F)F (single isomer, unassigned) [Example 100] | 0.35 nM | 3640 nM | – | 58.9 | 990 |
| COc1c(Cl)cccc1Nc1c(-c2ccncc2OCCC(C)OC)[nH]c2c1C(=O)N[C@H](C)C2 (mixture of isomers) [Example 120, (6R)-3-(3-chloro-2-methoxy-anilino)-2-[3-(3-methoxybutoxy)-4-pyridyl]-6-methyl-1,5,6,7-tetrahydropyrrolo[3,2-c]pyridin-4-one] | 0.0901 nM | 1480 nM | – | 31.1 | 358 |
| COc1c(Cl)cccc1Nc1c(-c2ccncc2OC[C@@H]2CCCO2)[nH]c2c1C(=O)N[C@@H]1CCC[C@H]21 [Example 56, (5aR,8aS)-3-(3-chloro-2-methoxyanilino)-2-(3-{[(2S)-oxolan-2-yl]methoxy}-4-pyridyl)-5,5a,6,7,8,8a-hexahydrocyclopenta[b]pyrrolo[2,3-d]pyridin-4(1H)-one] | 0.194 nM | 18500 nM and 18800 nM and > 20000 nM | – | 51.5 | 693 |
| Cc1c(Cl)cccc1Nc1c(-c2ccncc2OCC2COCCO2)[nH]c2c1C(=O)NCC2C (single isomer, unassigned) [Example 68, 3-(3-chloro-2-methyl-anilino)-2-[3-(1,4-dioxan-2-ylmethoxy)-4-pyridyl]-7-methyl-1,5,6,7-tetrahydropyrrolo[3,2-c]pyridin-4-one] | 0.3 nM | 5130 nM | – | 63.7 | 1380 |
| C[C@@H]1Cc2[nH]c(-c3ccncc3OCC3COCCO3)c(Nc3cccc(F)c3CC(F)F)c2C(=O)N1 (stereo partly drawn) [Example 108, (6R)-3-[2-(2,2-difluoroethyl)-3-fluoro-anilino]-2-[3-(1,4-dioxan-2-ylmethoxy)-4-pyridyl]-6-methyl-1,5,6,7-tetrahydropyrrolo[3,2-c]pyridin-4-one] | 0.213 nM | 6220 nM | – | 141 | 1400 |
